We go through 1 compound from US6569686B2, “Measurement of solubility-pH profiles” (Pion, Inc., priority 2000, dated 2003).

For the series the following is noted: pH 3.

From the text: Finding suitable candidates for a cosolvent universal buffer solution was problematic, since cosolvents change the pKas of the buffer components, and it is difficult to predict accurately to what extent the pKas would be different.

In the case of `O=S(=O)(O)CCN1CCN(CCO)CC1` [HEPES, 4-(2-hydroxyethyl)-1-piperazineethanesulfonic acid], the “pKa (I = 0.020M)” value was 7.48.
